Results published in the CheMixHub viscosity set.

Test: xn = mol fraction of the nth substance listed

ClC=C(Cl)Cl + CCCO
viscosity [mPa·s]
Conditions | x1 = 0.0848 | x1 = 0.1725 | x2 = 0.024 | x2 = 0.1062 | x2 = 0.253 | x2 = 0.3927 | x2 = 0.5454 | x2 = 0.6998 | x2 = 0.9543
298.15 K, 101.3 kPa | 1.705 | 1.485 | – | – | – | – | – | – | –
303.15 K, 101 kPa | – | – | 0.598 | 0.692 | 0.86 | 1.019 | 1.193 | 1.37 | 1.537
313.15 K, 101 kPa | – | – | 0.55 | 0.617 | 0.735 | 0.848 | 0.97 | 1.095 | 1.219
323.15 K, 101 kPa | – | – | 0.487 | 0.539 | 0.634 | 0.722 | 0.82 | 0.919 | 1.018

NC1CCCCC1 + CCC(C)=O
298.15 K, 101 kPa
Conditions | viscosity [mPa·s]
x1 = 0.0747 | 0.5316
x1 = 0.1538 | 0.6621
x1 = 0.2376 | 0.8418
x1 = 0.3265 | 1.042
x1 = 0.421 | 1.235
x1 = 0.5217 | 1.449
x1 = 0.6291 | 1.625
x1 = 0.7441 | 1.781
x1 = 0.8674 | 1.823
x2 = 0.1326 | 1.574
x2 = 0.2559 | 1.409
x2 = 0.3708 | 1.257
x2 = 0.4783 | 1.115
x2 = 0.579 | 0.978
x2 = 0.6735 | 0.846
x2 = 0.7624 | 0.719
x2 = 0.8462 | 0.599
x2 = 0.9252 | 0.481

O=C1CCCC1 + CCOC(=O)OCC
viscosity [mPa·s], 101 kPa
Conditions | x2 = 0.0876 | x2 = 0.1356 | x2 = 0.2458 | x2 = 0.3359 | x2 = 0.4228 | x2 = 0.5415 | x2 = 0.6475 | x2 = 0.7513 | x2 = 0.8664 | x2 = 0.9352
303.15 K | 0.958 | 0.937 | 0.891 | 0.859 | 0.83 | 0.797 | 0.77 | 0.747 | 0.725 | 0.713
308.15 K | 0.893 | 0.873 | 0.833 | 0.803 | 0.776 | 0.745 | 0.722 | 0.701 | 0.681 | 0.668
313.15 K | 0.835 | 0.819 | 0.783 | 0.757 | 0.733 | 0.705 | 0.683 | 0.664 | 0.644 | 0.632
